Assay results taken from paper PMC7180617, “Biological Evaluation of 3-Benzylidenechromanones and Their Spiropyrazolines-Based Analogues” (Molecules, 2020).

Tests used:
Type in all cases: cell-based, human
HL-60 cells = experiment: MTT cytotoxicity assay, HL-60; conditions: Homo sapiens, HL-60, 48 h, MTT, 46 h + 2 h incubation
Experimental: (§1) The first stage of the study used the MTT viability test to determine the cytotoxicity of ten compounds, i.e., 3-arylidenechromanone, 3-arylideneflavanone, spirochromanone and spiro- flavanone analogues, against four human cancer cell lines: HL-60, NALM-6, WM-115 and COLO-205.
(§2) Cytotoxicity was tested against human skin melanoma cells (WM-115, ECACC, Salisbury, UK), two human leukemia cell lines, viz. promyelocytic leukemia (HL-60) and lymphoblastic leukemia (NALM-6), and human colon adenocarcinoma cells (COLO-205). The cell lines COLO-205, WM-115 and HL-60 used in this work came from the ATCC American Type Culture Collection (Manassas, VA, USA), whereas the NALM-6 cell line was purchased from the German Collection of Microorganisms and Cell Cultures (Braunschweig, Germany). The leukaemia cells and colon adenocarcinoma were cultured in RPMI 1640 medium (Invitrogen, Grand Island, NY, USA) supplemented with 10% fetal bovine serum (FBS; Invitrogen) and gentamicin (25 µg/mL; KRKA, Novo Mesto, Slovenia). For melanoma WM-115 cells, Dulbecco’s minimal essential medium (DMEM; Invitrogen) was used. All cell lines were cultured at 37 °C in a humidified atmosphere of 5% CO2 in air.
(§3) For all experiments, the studied compounds were dissolved in DMSO (Sigma-Aldrich) and were further diluted in culture medium to obtain <0.1% DMSO concentration. In each experiment, controls with and without 0.1% DMSO were performed. The cytotoxicity of all compounds and of the reference compounds 4-chromanone and 3-benzylideneflavanone was determined by the MTT assay, i.e., 3-(4,5-dimethylthiazol-2-yl)-2,5-diphenyltetrazolium bromide (Sigma, St. Louis, MO, USA), which measures cellular dehydrogenase activity. Exponentially growing cells were seeded a day before the experiment onto a 96-well microplates (Nunc, Roskilde, Denmark) at a density up to 6–8 × 10^3 cells/well (depending on the cell line). Subsequently, various concentrations of the studied compounds freshly prepared in DMSO and diluted with complete culture medium were added. All compounds were tested for their cytotoxicity at a final concentration of 10^−7–10^−3 M. After 46 h of incubation with the studied compounds, the cells were treated with the MTT reagent and incubation was continued for another two hours. MTT – formazan crystals were dissolved in 20% sodium dodecyl sulphate (SDS, Sigma-Aldrich) and 50% DMF (Sigma-Aldrich) at pH 4.7; following this, absorbance was read at 570 nm on a multifunctional Victor ELISA-plate reader (Perkin Elmer, Turku, Finland). The IC50 values, i.e., the concentration of the test compound required to reduce the cell survival fraction to 50% of controls, were calculated from concentration-response curves and used as a measure of the sensitivity of the cells to a given treatment. As a control, cultured cells were grown in the absence of drugs. The data points represent the means of at least five to ten repeats ± standard deviation (S.D.).

NALM-6 cells = experiment: MTT cytotoxicity assay, NALM-6; conditions: Homo sapiens, NALM-6, 48 h, MTT, 46 h + 2 h incubation
Experimental: as §1, §2, §3

WM-115 cells = experiment: MTT cytotoxicity assay, WM-115; conditions: Homo sapiens, WM-115, 48 h, MTT, 46 h + 2 h incubation
Experimental: as §1, §2, §3

COLO-205 cells = experiment: MTT cytotoxicity assay, COLO-205; conditions: Homo sapiens, COLO 205, 48 h, 46 h + 2 h incubation
Experimental: as §1, §2, §3

In the case of `O=C1/C(=C/c2ccccc2)COc2ccccc21` [Compound 7, (E)-3-benzylidene-chroman-4-one], the IC50 (HL-60 cells) is reported as 34.8 ± 2.87 µM, the IC50 (NALM-6 cells) is reported as 6.83 ± 0.18 µM and the IC50 (WM-115 cells) is reported as 12.8 ± 1.83 µM. For the same molecule, the IC50 (COLO-205 cells) was 31 ± 1.4 µM.
